According to the NIST ThermoML archive (doi:10.1016/j.tca.2019.178334):

Assay: excess molar enthalpy (molar enthalpy of mixing); xn = mol fraction of the nth substance listed
Settings: 933 K, 101 kPa, Liquid, Calvet calorimetry

[Cl-].[Li+] [lithium chloride] + [Cl-].[K+]
Settings	excess molar enthalpy [kcal/mol]
x2 = 0	0
x2 = 0.026	-0.117
x2 = 0.061	-0.239
x2 = 0.073	-0.308
x2 = 0.105	-0.372
x2 = 0.128	-0.488
x2 = 0.162	-0.542
x2 = 0.188	-0.638
x2 = 0.214	-0.705
x2 = 0.24	-0.781
x2 = 0.275	-0.861
x2 = 0.298	-0.884
x2 = 0.33	-0.965
x2 = 0.371	-1.02
x2 = 0.418	-1.06
x2 = 0.427	-1.04
